# Data from patent US7250505B1, “Isolation and expression of a disabled protein gene mDab1 and methods” (Fred Hutchinson Cancer Research Center, priority 1997, dated 2007).
# No end group written: not given here.
# Key:
# [1] = biological target: T1, mDab1 PTB domain (Mus musculus, UniProt P97318); experiment: Binding of radioactively labeled GST-mDab1 PTB domain fusion protein to synthetic peptides in a grid array on cellulose; settings: 15 to 17 residue peptides with NPXY motifs on cellulose sheet
# T1 construct: the region corresponding to the mDab1 PTB, residues 29 to 197; made in house; host or cells: Escherichia coli strain TG-1
# T1 sequence (P97318 29-197): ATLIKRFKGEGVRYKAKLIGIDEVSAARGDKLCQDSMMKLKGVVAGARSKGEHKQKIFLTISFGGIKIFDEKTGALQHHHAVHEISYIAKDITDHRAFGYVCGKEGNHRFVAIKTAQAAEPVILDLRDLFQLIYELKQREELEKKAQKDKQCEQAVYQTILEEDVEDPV
# Experimental: The ability of the mDab1 PTB domain to interact directly with synthetic peptides based on the sequences identified in the two-hybrid screen was tested to identify the optimal sequence for mDab1 PTB domain binding. […] The purified, radioactive fusion protein was then incubated with a sheet of cellulose paper onto which different 15 to 17 residue synthetic peptides had been synthesized in a grid array (Niebuhr, et al., EMBO J. 16:5433-5444 (1997), incorporated herein by reference). Each sheet contained up to 100 different peptide sequences. After incubation, the sheet was washed and exposed to film, and bound PTB domain fusion protein was quantified. […] The mDab1 PTB domain was tested against peptides containing NPXY motifs from APP, the APP relatives APLP1 and APLP2, LRP, the LRP-related LDL receptor, Ship, and known ligands for the Shc and IRS-1 PTB domains, namely the EGF receptor, HER3 receptor, NGF receptor (TrkA), and insulin receptor. The mDab1 PTB domain was also tested against peptide motifs with phosphotyrosine in place of the tyrosine of the NPXY sequence (i.e. NPXpY peptides). The amount of radioactivity associated with each peptide was quantified with a PhosphorImager (Molecular Dynamics), and depicted as a percentage of that which associated with the APP peptide.
# To determine which residues in the APP sequence are involved in the interaction with the mDab1 PTB, an array of peptides based on the APP sequence with alanine substituted at each position in turn were synthesized. The ability of each peptide to bind to the PTB domain was compared to wild-type. […] Only the side chains of residues on the amino-terminal side of the NPXY motif appear to influence the strength of the interaction.
# To determine the features of the APP peptide that were recognized by the mDab1 PTB domain, all nineteen amino acids, except cysteine, were substituted at several positions. In all cases the mDab1 PTB domain bound better to the wild-type APP sequence than to any altered sequence. Most substitutions of residues Gly-6, Tyr-5, Asn-3, Pro-2 and Tyr-0 inhibited PTB domain binding by greater than 80%. […] For example, the significant binding of the p150 Ship, LRP, and LDL receptor peptides implies that replacement of Tyr-5 with phenylalanine is permitted provided other changes are also made.
# [2] = biological target: T2, mDab1 PTB (Mus musculus, UniProt P97318); experiment: GST-mDab1 PTB binding of tyrosine phosphorylated proteins from E13 mouse head lysates in the presence of phosphoamino acid competitors; settings: competitor in binding buffer (50 mM)
# T2 construct: the region corresponding to the mDab1 PTB, residues 29 to 197; made in house; host or cells: Escherichia coli strain TG-1
# T2 sequence (P97318 29-197): T1 sequence (P97318 29-197)
# Experimental: Lysates from 293T cells transfected with retroviral vectors encoding mDab555 alone; Src 527F alone; Src527F and mDab555 together; or Src527F and mDab1 98/200F, which is described in more detail below, were either bound to immobilized GST fusions proteins or were immunoprecipitated with anti-mDab1 or preimmune antibodies. Binding assays and analysis were carried out essentially as described for immunoprecipitations with 5 μg of GST fusion protein immobilized on glutathione agarose beads. Phenyl phosphate and phosphoserine were used at 50 mM for competition experiments. After washing, mDab1 bound to the immobilized SH2 domains was detected by immunoblotting. […] The Abl and Csk SH2 domains do form high affinity complexes with other tyrosine phosphorylated molecules however (Sabe et al., Proc. Natl. Acad. Sci. USA 91:3984-3988 (1994); Duyster et al., ibid. (1995)).
# To examine whether the mDab1 PTB binds proteins that are tyrosine phosphorylated during neural development, a GST fusion protein containing the mDab1 PTB, a mutant mDab1 PTB in which Arg 56 was changed to Glu (mDab1 56E) or GST alone. was incubated with lysates from E13 mouse heads. Bound proteins were eluted, resolved and immunoblotted with anti-phosphotyrosine antibodies. The mDab1 PTB bound tyrosine phosphorylated proteins of 200, 120, 50-65 and 40 kDa.
# To test whether the binding of proteins to the mDab1 PTB is phosphotyrosine dependent, binding experiments were done in the presence of the phosphotyrosine analog phenylphosphate. The assays was conducted as described above and phenylphosphate or phosphoserine were included in the binding buffer to investigate binding specificity. Proteins were eluted and analyzed as described above. […] However the binding of the 50-65 kDa proteins was not affected by either competitor.
# [3] = biological target: T2, mDab1 PTB; experiment: Competition of GST-mDab1 PTB binding to LUVs containing PtdIns4,5P2 by inositol phosphates
# Experimental: GST fusion proteins containing the Shc or mDab1 PTB domain were compared for their ability to bind LUVs that contained phosphotidylisositol 4,5 P2 (PtdIns4,5P2), phosphatidylserine (PtdSer) and phosphatidylethanolamine (PtdEth). Methods for the production of LUVs and assays for binding to Shc phosphotyrosine-binding domains can found in Ravichandran, et al., Mol. Cell. Biol. 17:5540-5549 (1997) which is incorporated herein by reference. After the fusion proteins and a GST control were incubated with the LUVs the reactions were centrifuged and the presence of the fusion proteins were detected by SDS PAGE and Western blotting with antibodies to GST as described above. GST-Shc PTB and GST-mDab1 PTB fusion proteins were found in the high speed pellet fraction in the presence of but not in the absence of LUVs. While the GST fusion protein control was found in the high speed supernatant in the presence of absence of the LUVs.
# The specificity of mDab1 PTB binding to phospholipids was also determined. For these studies LUVs were prepared containing equal quantities of PtdSer, phosphatidylcholine (PtdCho) and Ptd Eth, and 0 or 5% by weight of PtdIns4P, PtdIns4,5P2, or PdtIns3,4,5P3. This corresponded to approximately 7.5 μM phosphoinositide in the outer leaflet of the lipid bilayer. Detection of binding to the LUVs was determined as described above.
# mDab1 PTB binding to LUVs containing phosphoinositides in the presence of various phosphorylated isomers of inositol was also examined to determine whether the binding of mDab1 PTB to phosphoinositides was specific or was the result of a strong affinity for strongly anionic phospholipids. […] Binding was competed with D-Ins1,4,5P3, but not by L-Ins1, 4,5P3.
compound,measurement,setting,value
NVGNPEY [SEQ ID NO:32],binding of mDab1 PTB domain to peptide,[1],failed to interact
NFDNPVY [SEQ ID NO:29],binding of mDab1 PTB domain to peptide,[1],bound
NSSNPEY [SEQ ID NO:34],binding of mDab1 PTB domain to peptide,[1],failed to interact
MFENPLY [SEQ ID NO:30],binding of mDab1 PTB domain to peptide,[1],better than the other
"NFTNPVY [SEQ ID NO:28, peptide with the more carboxy-terminal NPXY motif of LRP]",binding of mDab1 PTB domain to peptide,[1],bound
N[C@@H](COP(=O)(O)O)C(=O)O [phosphoserine],binding of the 50-65 kDa proteins to mDab1 PTB in presence of competitor,[2],not affected
same,binding of the 120 and 40 kDa phosphotyrosyl proteins to mDab1 PTB in presence of competitor,[2],to a less extent
"O=P(O)(O)O[C@@H]1[C@@H](O)[C@H](OP(=O)(O)O)[C@@H](OP(=O)(O)O)[C@H](O)[C@@H]1O [L-Ins1, 4,5P3]","competition of GST-mDab1 PTB binding to LUVs containing PtdIns4,5P2",[3]; competitor at 100 μM,not
"O=P(O)(O)O[C@@H]1[C@H](O)[C@H](O)[C@@H](OP(=O)(O)O)[C@H](OP(=O)(O)O)[C@H]1O [D-Ins1,4,5P3]","competition of GST-mDab1 PTB binding to LUVs containing PtdIns4,5P2",[3]; competitor at 30 μM,weak competition
same,"competition of GST-mDab1 PTB binding to LUVs containing PtdIns4,5P2",[3]; competitor at 100 μM,competed
O=P(O)(O)Oc1ccccc1 [phenylphosphate],binding of the 50-65 kDa proteins to mDab1 PTB in presence of competitor,[2],not affected
same,binding of the 120 and 40 kDa phosphotyrosyl proteins to mDab1 PTB in presence of competitor,[2],reduced significantly
IIENPQY [SEQ ID NO:33],binding of mDab1 PTB domain to peptide,[1],failed to interact
